Experiment [1] deals with T1, BuChE (Equus caballus, UniProt P81908).
T1 construct: purchased Sigma-Aldrich Co. (St. Louis, Missouri, United States) C1057
The experiment is described as follows: biochemical. In kind it is biochemical. To be noted: for inhibition at 100 µM: read-out: Inhibition of BuChE; for IC50: 0.05 Unit/mL enzyme, pH 7.4, 37°C, 30 min, triplicate, mean ± SEM. Here is the method: (§1) All HPLC solvents were purchased from Guangdong Guanghua Sci-Tech Co. Ltd. (Guangzhou, China). […] All chemicals and solvents used in column chromatography and assays were acquired from commercial sources.
(§2) 25 µL of 1 mM DTNB [5,5′-dithiobis (2-nitrobenzoic acide)] and 25 µL of 5 mM substrate, acetylthiocholine iodide (A5751), and butyrylthiocholine iodide (B3253) were sequentially added to wells in the plate. […] The inhibition ratio was calculated using the equation: Inhibitory activity(%)=[(ΔC-ΔI)/ΔC]×100 Where C and I are the intensity of control and inhibitor after 20 min, respectively.
(§3) Compounds were first evaluated in vitro for their inhibitory activities against AChE and BuChE at a concentration of 100 µM.

The target of experiment [2] is T2, AChE (Electrophorus electricus, UniProt O42275).
T2 construct: purchased Sigma-Aldrich Co. (St. Louis, Missouri, United States) C3389
T2 sequence (O42275 24-633): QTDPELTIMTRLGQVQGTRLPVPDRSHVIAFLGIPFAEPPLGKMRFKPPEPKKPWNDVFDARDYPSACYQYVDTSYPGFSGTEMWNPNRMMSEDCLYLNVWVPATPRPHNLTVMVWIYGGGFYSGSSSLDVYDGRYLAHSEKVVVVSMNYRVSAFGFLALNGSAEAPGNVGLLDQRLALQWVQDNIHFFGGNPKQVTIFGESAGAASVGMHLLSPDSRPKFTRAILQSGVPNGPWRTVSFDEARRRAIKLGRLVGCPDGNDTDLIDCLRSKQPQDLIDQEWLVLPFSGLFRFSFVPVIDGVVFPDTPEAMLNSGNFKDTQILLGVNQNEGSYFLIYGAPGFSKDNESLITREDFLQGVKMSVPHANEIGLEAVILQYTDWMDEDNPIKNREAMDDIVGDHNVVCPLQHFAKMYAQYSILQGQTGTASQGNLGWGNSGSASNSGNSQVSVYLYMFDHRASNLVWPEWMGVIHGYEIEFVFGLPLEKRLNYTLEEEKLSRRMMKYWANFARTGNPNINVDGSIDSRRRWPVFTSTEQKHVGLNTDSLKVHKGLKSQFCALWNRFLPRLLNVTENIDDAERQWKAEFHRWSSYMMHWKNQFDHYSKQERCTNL
The experiment is described as follows: biochemical. The settings on record: for inhibition at 100 µM: read-out: Inhibition of AChE; for IC50: 0.05 Unit/mL enzyme, pH 7.4, 37°C, 30 min, triplicate, mean ± SEM. On the procedure: as §1, §2, §3

For experiment [3], the target named is T1, BuChE. The experiment is described as follows: Enzyme kinetics on BuChE (Lineweaver-Burk and Dixon plots). The settings on record: for Ki: Dixon plots, read-out: BuChE K i; for BuChE Inhibition type: Lineweaver-Burk plots, compound 2–90 µM, substrate 0.07–5 mM. Type of experiment: biochemical. Here is the method: (§4) […]. This was achieved by performing enzyme kinetic studies on AChE/BuChE in the presence of different concentrations of compounds 30–34 (2–90 µM) at various steady-state substrate concentrations (0.07–5 mM). The interactions between compounds and cholinesterase are represented using classic double-reciprocal Lineweaver-Burk and Dixon plots ([Lineweaver and Burk, 1934]; [Dixon, 1953]). […] The resulting linear equations for compounds 30–34 with BuChE led to a series of lines with different slopes that crossed at similar intercepts on the vertical axis and different points on the horizontal axis.

Experiment [4] addresses T2, AChE. The experiment is described as follows: Enzyme kinetics on AChE (Lineweaver-Burk and Dixon plots). Type of experiment: biochemical. To be noted: for Ki: Dixon plots, read-out: AChE K i; for AChE Inhibition type: Lineweaver-Burk plots, compound 2–90 µM, substrate 0.07–5 mM. On the procedure:
as §4

Where “and” joins values, the source holds several entries; their conditions need not be identical. Equal entries are not always repeated. Where two headings read alike, the source gives them in different places.

T1 sequence (P81908 whole entry): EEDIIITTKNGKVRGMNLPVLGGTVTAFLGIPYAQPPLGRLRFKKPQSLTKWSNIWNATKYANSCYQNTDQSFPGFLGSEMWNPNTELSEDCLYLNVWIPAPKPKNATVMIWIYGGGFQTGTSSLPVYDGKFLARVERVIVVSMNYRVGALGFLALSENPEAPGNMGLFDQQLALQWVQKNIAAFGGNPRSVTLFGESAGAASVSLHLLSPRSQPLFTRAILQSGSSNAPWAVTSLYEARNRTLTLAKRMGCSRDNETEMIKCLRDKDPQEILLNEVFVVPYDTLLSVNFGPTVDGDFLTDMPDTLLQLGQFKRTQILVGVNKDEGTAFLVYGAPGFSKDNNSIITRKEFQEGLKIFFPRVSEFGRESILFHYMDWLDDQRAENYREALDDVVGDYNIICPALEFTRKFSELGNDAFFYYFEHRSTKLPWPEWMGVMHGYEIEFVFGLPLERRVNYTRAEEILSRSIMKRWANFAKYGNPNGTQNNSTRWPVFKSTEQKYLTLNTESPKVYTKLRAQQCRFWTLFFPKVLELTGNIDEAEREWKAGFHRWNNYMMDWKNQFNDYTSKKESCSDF

The inhibition is the relative decrease from the control value, in per cent. As for `O=c1cc(-c2ccc(O)cc2)oc2cc(O)cc(O)c12` [Compound 1, apigenin], the inhibition at 100 µM at BuChE [1] (at 100 µM) and on AChE [2] was above 50% throughout.
As to `O=c1c(O[C@@H]2O[C@H](CO)[C@@H](O)[C@H](O)[C@H]2O)c(-c2ccc(O)cc2)oc2cc(O)cc(O)c12` [Compound 5, astragalin], the inhibition at 100 µM on BuChE [1] and on AChE [2] was above 50% in each case.
For `Oc1cc(O)c2c(c1)O[C@H](c1ccc(O)c(O)c1)[C@H](O)C2` [Compound 19, (-)-epicatechin], the inhibition at 100 µM at BuChE [1] (at 100 µM) and on AChE [2] (at 100 µM) was above 50% in each case.
As usually defined, the IC50 is the concentration needed to halve the response being measured. A higher IC50 goes with a need for much substance. On to `COc1cc(/C=C/C(=O)OC[C@H]2O[C@@](COC(=O)/C=C/c3ccc(O)c(OC)c3)(O[C@H]3O[C@H](COC(=O)/C=C/c4ccc(O)c(OC)c4)[C@@H](O)[C@H](O)[C@H]3O)[C@@H](OC(=O)/C=C/c3ccc(O)cc3)[C@@H]2O)ccc1O` [Compound 30, lapathoside B], for which the figures for the IC50 on BuChE [1] and on AChE [2] were 10.9 ± 4.9 µM and above 100 µM, respectively. In addition, the Ki at BuChE [3] is around 12.1 µM. On BuChE [3], the “BuChE Inhibition type” value is recorded as “Competitive”.
`COc1cc(/C=C/C(=O)OC[C@H]2O[C@H](O[C@]3(COC(=O)/C=C/c4ccc(O)cc4)O[C@H](COC(=O)/C=C/c4ccc(O)cc4)[C@@H](O)[C@@H]3OC(=O)/C=C/c3ccc(O)cc3)[C@H](O)[C@@H](O)[C@@H]2O)ccc1O` [Compound 31, vanicoside B]: the Ki on AChE [4] is around 30 µM; at BuChE [3], around 3.5 µM. For the same compound, at AChE [4], the “AChE Inhibition type” value is “non-competitive inhibitors”. Besides, the IC50 was found to be 7.5 ± 4.1 µM against BuChE [1] and 32.3 ± 4.7 µM on AChE [2]. The “BuChE inhibitory activity relative to Compound 34” value on BuChE [1] (from IC50 values (7.5 vs 17.1 µM)) is “over 2 fold”. Also, the “BuChE Inhibition type” value on BuChE [3] was “Competitive”. On AChE [2] (at 100 µM), the inhibition at 100 µM was above 60%.
For `COc1cc(/C=C/C(=O)OC[C@H]2O[C@H](O[C@]3(COC(=O)/C=C/c4ccc(O)c(OC)c4)O[C@H](COC(=O)/C=C/c4ccc(O)cc4)[C@@H](O)[C@@H]3OC(=O)/C=C/c3ccc(O)cc3)[C@H](O)[C@@H](O)[C@@H]2O)ccc1O` [Compound 32, lapathoside A], on AChE [4], the Ki is around 34.4 µM and the “AChE Inhibition type” value was “non-competitive inhibitors”. For the same compound, the IC50 against BuChE [1] was 2.7 ± 1.7 µM. On BuChE [3], the Ki was around 1.8 µM and the “BuChE Inhibition type” value was “Competitive”. Further, at AChE [2], the IC50 amounted to 30.6 ± 4.7 µM. On AChE [2] (at 100 µM), the inhibition at 100 µM was above 60%.
smilaside G [Compound 34] displayed an IC50 against BuChE [1] of 17.1 ± 3.4 µM. At BuChE [3], the Ki is 17.5 µM and ~17.5 µM; the “BuChE Inhibition type” value is on record as “Competitive”. This compound also registered an IC50 against AChE [2] above 100 µM.
In the case of smilaside J [Compound 33], the values for the IC50 on BuChE [1] and against AChE [2] were 10.1 ± 4.6 µM and 56 ± 2.4 µM, respectively. Moreover, the Ki on BuChE [3] was around 8.5 µM. For the same compound, the “BuChE Inhibition type” value at BuChE [3] is given as “Competitive”.
